By IC50 is commonly meant the point on the concentration scale where inhibition reaches its midpoint. A lower IC50 goes with inhibition by little substance. In general, LD50 refers to the dose expected to kill half of the subjects tested. Broadly, the ED50 is the dose that gives a 50% effect, or the effect in half of the subjects. Low readings indicate greater potency, high ones weaker potency.

From ChEMBL document CHEMBL1128477, “5,7-dihydro-3-[2-[1-(phenylmethyl)-4-piperidinyl]ethyl]-6H- pyrrolo[3,2-f]-1,2-benzisoxazol-6-one: a potent and centrally-selective inhibitor of acetylcholinesterase with an improved margin of safety” (J Med Chem, 1995) come the findings set out here.

A short description of data set [1]: Safety index is the ratio of acute lethality LD50 to extracellular AchE ED50. The data set is classed as toxicity. The following applies: read-out: Safety index.
The next data set has as its target Acetylcholinesterase (Homo sapiens, UniProt P22303).
The target in the next data set is Cholinesterase (Homo sapiens, UniProt P06276).
Cholinesterase, sequence (P06276 whole entry): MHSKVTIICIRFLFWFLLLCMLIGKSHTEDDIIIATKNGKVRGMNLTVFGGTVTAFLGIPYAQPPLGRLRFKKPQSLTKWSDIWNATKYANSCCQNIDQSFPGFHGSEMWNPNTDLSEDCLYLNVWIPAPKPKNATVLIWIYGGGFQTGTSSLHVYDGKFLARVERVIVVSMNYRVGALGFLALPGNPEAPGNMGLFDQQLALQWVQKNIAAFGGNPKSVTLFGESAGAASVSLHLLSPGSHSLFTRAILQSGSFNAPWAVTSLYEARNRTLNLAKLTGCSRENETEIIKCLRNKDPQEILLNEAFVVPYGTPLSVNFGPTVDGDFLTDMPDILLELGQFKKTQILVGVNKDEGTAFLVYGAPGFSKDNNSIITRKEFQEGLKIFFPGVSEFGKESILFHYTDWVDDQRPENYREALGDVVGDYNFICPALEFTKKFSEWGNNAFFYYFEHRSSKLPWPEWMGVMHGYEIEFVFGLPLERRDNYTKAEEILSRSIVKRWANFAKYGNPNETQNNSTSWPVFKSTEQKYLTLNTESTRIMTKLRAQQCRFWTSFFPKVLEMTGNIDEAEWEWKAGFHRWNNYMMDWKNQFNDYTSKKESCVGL
The species named for data set [2] is Rattus norvegicus. Put plainly: animal or person. The conditions noted are these: 3 h.
Data set [3] is filed under the species Rattus norvegicus. The experiment in a line: animal or person.
Description: ED50 for salivation was defined as the dose required to produce a level 2 rating on a 0-4 point scale after treatment.

Acetylcholinesterase, sequence (P22303 whole entry): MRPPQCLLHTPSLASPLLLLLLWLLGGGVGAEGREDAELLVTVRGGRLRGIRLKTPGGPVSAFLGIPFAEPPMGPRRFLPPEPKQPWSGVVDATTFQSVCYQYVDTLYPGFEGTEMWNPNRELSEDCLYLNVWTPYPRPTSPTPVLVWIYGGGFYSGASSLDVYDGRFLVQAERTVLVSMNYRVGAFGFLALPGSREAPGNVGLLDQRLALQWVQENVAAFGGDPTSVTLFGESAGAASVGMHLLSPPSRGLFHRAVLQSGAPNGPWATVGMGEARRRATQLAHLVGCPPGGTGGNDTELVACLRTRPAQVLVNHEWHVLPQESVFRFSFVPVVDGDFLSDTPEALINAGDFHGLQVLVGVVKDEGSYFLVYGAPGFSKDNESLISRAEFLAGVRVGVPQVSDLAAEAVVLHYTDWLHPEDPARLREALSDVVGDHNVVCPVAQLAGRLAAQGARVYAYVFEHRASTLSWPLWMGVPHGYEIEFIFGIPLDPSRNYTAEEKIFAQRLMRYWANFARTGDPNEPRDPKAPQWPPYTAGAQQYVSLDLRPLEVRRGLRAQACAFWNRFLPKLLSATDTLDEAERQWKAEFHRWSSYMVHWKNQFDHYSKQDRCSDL
Description for Acetylcholinesterase: In vitro inhibition of Acetylcholinesterase from human erythrocytes
Description for in vivo: LD50 for actute lethality is defined as the dose that resulted in the death of 50% of the animals 1 hr after treatment.

As to `O=C(O)/C=C\C(=O)O.O=C1Cc2cc3c(CCC4CCN(Cc5ccccc5)CC4)noc3cc2N1` [ICOPEZIL MALEATE], the selectivity ratio in data set [1] is 105. For the same molecule, the IC50 against Acetylcholinesterase was 0.33 nM; at Cholinesterase, 7200 nM. In addition, the LD50 at 1 h in “in vivo” is 42 mg/kg. The ED50 in the data set listed under Rattus norvegicus [2] was found to be 0.4 mg/kg; in the data set listed under Rattus norvegicus [3] it was 26 mg/kg.
The molecule `CC(=O)Nc1ccc2c(CCC3CCN(Cc4ccccc4)CC3)noc2c1` had an IC50 against Cholinesterase of 9000 nM.
On to `O=C1Cc2c(ccc3c(CCC4CCN(Cc5ccccc5)CC4)noc23)N1`, for which the IC50 at Acetylcholinesterase was determined as 3.6 nM; at Cholinesterase it was 2200 nM.
`O=C1CCc2cc3c(CCC4CCN(Cc5ccccc5)CC4)noc3cc2N1`: the IC50 on Acetylcholinesterase came to 0.57 nM; against Cholinesterase it was 4000 nM.
With `CN1C(=O)Cc2cc3c(CCC4CCN(Cc5ccccc5)CC4)noc3cc21`, the IC50 against Acetylcholinesterase was found to be 0.48 nM; against Cholinesterase it was 4500 nM.
With `O=C1Cc2cc3onc(CCC4CCN(Cc5ccccc5)CC4)c3cc2N1`, the IC50 came out at 0.95 nM at Acetylcholinesterase and 3900 nM against Cholinesterase.
